Measured values published in patent US20170368082A1, “FORMULATIONS OF BRINCIDOFOVIR” (priority 2016, published 2017).

Assay: Tissue distribution by quantitative whole-body autoradiography (QWBA)
Assay type: in vivo, male Sprague Dawley and Long-Evans rats
Details: for AUCall Ratio (PO/IV) / Cmax Ratio (PO/IV): 15 mg/kg, Group 7 vs Group 4
Description: The study utilized 4 groups of male SD rats (albino), and 3 groups of male LE rats (pigmented); a total of 39 rats. All animals were obtained from Hilltop Lab Animals, Inc. (Scottdale, Pa.). […] Rats in Group 5 were administered a single 2-h IV infusion of [^14C]brincidofovir at a target dose of 2 mg/kg. […] Three dosing formulations (one for high dose IV, one for low dose IV, and one for PO dose) were prepared at QPS on the day of dosing. The IV formulation for Groups 1, 2, 3, and 4 contained a vehicle of 10 mM sodium phosphate buffer in 5% dextrose solution at pH 8.0(±0.1).
Each animal, at their respective termination time points, was euthanized for QWBA analysis immediately after blood collection. One rat per time point per Group was euthanized as listed below.
The blood samples were maintained on wet ice (approximately 4° C.) and then centrifuged to obtain plasma within 1 h of the blood collection time. Centrifuge settings were recorded in the study notebook. Duplicate aliquots of plasma (0.050 mL) were analyzed for radioactivity using direct counting by LSC, and residual plasma was stored at approximately −70° C. and was saved for possible future analysis under a separate study protocol. Residual red blood cells were discarded as radioactive waste.
The pinna, distal limbs, hair, and tail were removed from each frozen carcass and each frozen carcass was embedded in an aqueous suspension of approximately 2% (w/v) carboxymethylcellulose and frozen into a block. The blocks were stored at approximately −20° C. prior to sectioning. Each blocked carcass was mounted on the object stage of a cryomicrotome (Leica CM3600 Cryomacrocut, Nussloch, Germany and Vibratome 9800, St. Louis, Mo.) maintained at approximately −20° C. and internal standards (3), which were plasma fortified with [^14C]-glucose at one concentration (approximately 0.05 μCi/mL), were placed into the frozen blocks, prior to sectioning, and were used for section thickness quality control. A number of whole-body sections (approximately 40 μm thick) were taken in the sagittal plane at various levels of interest using a whole-body cryomicrotome set at −20° C. Sagittal sections (20-50 μm thick) of frozen carcasses were exposed to phosphor imaging plates. Regions of images in tissues were converted to concentrations using standards. All of the major tissues, organs, and biological fluids were represented.
Tissue concentration data was determined for the following tissues and/or contents: adipose (brown and white), adrenal gland, bile (in duct), blood (cardiac), bone, bone marrow, brain (cerebrum, cerebellum, medulla), cecum (and contents), large intestine (and contents), epididymis, esophagus, eye (uvea and lens), Harderian gland, heart, kidney (cortex and medulla), liver, lung, lymph node, pancreas, pituitary gland, prostate gland, salivary gland, seminal vesicles, skeletal muscle, skin (pigmented and non-pigmented), small intestine (and contents), stomach (gastric mucosa and contents), spleen, spinal cord, testis, thymus, thyroid, and urinary bladder (and contents).
The imaging plate and sections were placed in light-tight exposure cassettes, in a copper-lined lead safe, for a 4-day exposure at room temperature. […] Quantification was performed by image densitometry using MCD image analysis software (v. 7.0, Interfocus Imaging Ltd) and a standard curve constructed from the integrated response [i.e., Molecular Dynamics Counts per square millimeter (MDC/mm^2)] and the nominal concentrations of the ^14C-calibration standards. The concentrations of radioactivity were expressed as the μg equivalents of [^14C]brincidofovir per gram sample (μg equiv/g). A lower limit of quantification (LLOQ) was applied to the data (See section 6.7.4).
Tissue concentrations that fell below the LLOQ were identified as being below the quantification limit (BQL). Tissue areas that were not visualized on autoradiographic images were identified as no sample (NS) and reported as BQL.

## CCCCCCCCCCCCCCCCOCCCOP(=O)(O)CO[C@H](CO)Cn1ccc(N)nc1=O [[^14C] brincidofovir]
Adipose (brown)
  AUCall Ratio (PO/IV): 0.25
  Cmax Ratio (PO/IV): 0.18
Adipose (brown), 2 h IV infusion 15 mg/kg, Group 4
  AUCall: 96.6220 μg equiv · h/g
Adipose (brown), 2 h IV infusion 15 mg/kg, Group 4, LLOQ 0.036
  Tissue Concentration (168 h): 0.132 μg equiv/g
Adipose (brown), PO 15 mg/kg, Group 7, LLOQ 0.034
  Tissue Concentration (168 h): 0.037 μg equiv/g
Adipose (brown), PO 15 mg/kg, Group 7
  AUCall: 24.3703 μg equiv · h/g
Adipose (white)
  AUCall Ratio (PO/IV): 0.16
  Cmax Ratio (PO/IV): 0.24
Adipose (white), 2 h IV infusion 15 mg/kg, Group 4
  AUCall: 7.1955 μg equiv · h/g
Adipose (white), 2 h IV infusion 15 mg/kg, Group 4, LLOQ 0.036
  Tissue Concentration (168 h): BQL
Adipose (white), PO 15 mg/kg, Group 7, LLOQ 0.034
  Tissue Concentration (168 h): BQL
Adipose (white), PO 15 mg/kg, Group 7
  AUCall: 1.1215 μg equiv · h/g
Adrenal Gland
  AUCall Ratio (PO/IV): 0.19
  Cmax Ratio (PO/IV): 0.28
Adrenal Gland, 2 h IV infusion 15 mg/kg, Group 4
  AUCall: 384.2580 μg equiv · h/g
Adrenal Gland, 2 h IV infusion 15 mg/kg, Group 4, LLOQ 0.036
  Tissue Concentration (168 h): 0.49 μg equiv/g
Adrenal Gland, PO 15 mg/kg, Group 7, LLOQ 0.034
  Tissue Concentration (168 h): 0.058 μg equiv/g
Adrenal Gland, PO 15 mg/kg, Group 7
  AUCall: 74.5860 μg equiv · h/g
Blood (cardiac)
  AUCall Ratio (PO/IV): 0.48
  Cmax Ratio (PO/IV): 0.21
Blood (cardiac), 2 h IV infusion 15 mg/kg, Group 4
  AUCall: 45.3555 μg equiv · h/g
Blood (cardiac), 2 h IV infusion 15 mg/kg, Group 4, LLOQ 0.036
  Tissue Concentration (168 h): BQL
Blood (cardiac), PO 15 mg/kg, Group 7, LLOQ 0.034
  Tissue Concentration (168 h): BQL
Blood (cardiac), PO 15 mg/kg, Group 7
  AUCall: 21.9165 μg equiv · h/g
Bone Marrow
  AUCall Ratio (PO/IV): 0.35
  Cmax Ratio (PO/IV): 0.12
Bone Marrow, 2 h IV infusion 15 mg/kg, Group 4
  AUCall: 197.3860 μg equiv · h/g
Bone Marrow, 2 h IV infusion 15 mg/kg, Group 4, LLOQ 0.036
  Tissue Concentration (168 h): 0.232 μg equiv/g
Bone Marrow, PO 15 mg/kg, Group 7, LLOQ 0.034
  Tissue Concentration (168 h): 0.094 μg equiv/g
Bone Marrow, PO 15 mg/kg, Group 7
  AUCall: 68.7413 μg equiv · h/g
Bone
  AUCall Ratio (PO/IV): 0.30
  Cmax Ratio (PO/IV): 0.39
Bone, 2 h IV infusion 15 mg/kg, Group 4
  AUCall: 6.1805 μg equiv · h/g
Bone, 2 h IV infusion 15 mg/kg, Group 4, LLOQ 0.036
  Tissue Concentration (168 h): BQL
Bone, PO 15 mg/kg, Group 7, LLOQ 0.034
  Tissue Concentration (168 h): BQL
Bone, PO 15 mg/kg, Group 7
  AUCall: 1.8470 μg equiv · h/g
Brain (cerebellum)
  AUCall Ratio (PO/IV): 0.07
  Cmax Ratio (PO/IV): 0.07
Brain (cerebellum), 2 h IV infusion 15 mg/kg, Group 4
  AUCall: 12.1870 μg equiv · h/g
Brain (cerebellum), 2 h IV infusion 15 mg/kg, Group 4, LLOQ 0.036
  Tissue Concentration (168 h): BQL
Brain (cerebellum), PO 15 mg/kg, Group 7, LLOQ 0.034
  Tissue Concentration (168 h): BQL
Brain (cerebellum), PO 15 mg/kg, Group 7
  AUCall: 0.8610 μg equiv · h/g
Brain (cerebrum)
  AUCall Ratio (PO/IV): 0.08
  Cmax Ratio (PO/IV): 0.07
Brain (cerebrum), 2 h IV infusion 15 mg/kg, Group 4
  AUCall: 9.1765 μg equiv · h/g
Brain (cerebrum), 2 h IV infusion 15 mg/kg, Group 4, LLOQ 0.036
  Tissue Concentration (168 h): BQL
Brain (cerebrum), PO 15 mg/kg, Group 7, LLOQ 0.034
  Tissue Concentration (168 h): BQL
Brain (cerebrum), PO 15 mg/kg, Group 7
  AUCall: 0.7650 μg equiv · h/g
Brain (medulla)
  AUCall Ratio (PO/IV): 0.06
  Cmax Ratio (PO/IV): 0.06
Brain (medulla), 2 h IV infusion 15 mg/kg, Group 4
  AUCall: 9.7470 μg equiv · h/g
Brain (medulla), 2 h IV infusion 15 mg/kg, Group 4, LLOQ 0.036
  Tissue Concentration (168 h): BQL
Brain (medulla), PO 15 mg/kg, Group 7, LLOQ 0.034
  Tissue Concentration (168 h): BQL
Brain (medulla), PO 15 mg/kg, Group 7
  AUCall: 0.5770 μg equiv · h/g
Cecum
  AUCall Ratio (PO/IV): 0.48
  Cmax Ratio (PO/IV): 1.07
Cecum, 2 h IV infusion 15 mg/kg, Group 4
  AUCall: 360.7580 μg equiv · h/g
Cecum, 2 h IV infusion 15 mg/kg, Group 4, LLOQ 0.036
  Tissue Concentration (168 h): 0.08 μg equiv/g
Cecum, PO 15 mg/kg, Group 7, LLOQ 0.034
  Tissue Concentration (168 h): 0.137 μg equiv/g
Cecum, PO 15 mg/kg, Group 7
  AUCall: 174.4118 μg equiv · h/g
Epididymis
  AUCall Ratio (PO/IV): 0.33
  Cmax Ratio (PO/IV): 0.16
Epididymis, 2 h IV infusion 15 mg/kg, Group 4
  AUCall: 95.0160 μg equiv · h/g
Epididymis, 2 h IV infusion 15 mg/kg, Group 4, LLOQ 0.036
  Tissue Concentration (168 h): 0.129 μg equiv/g
Epididymis, PO 15 mg/kg, Group 7, LLOQ 0.034
  Tissue Concentration (168 h): 0.042 μg equiv/g
Epididymis, PO 15 mg/kg, Group 7
  AUCall: 31.1150 μg equiv · h/g
Esophagus
  AUCall Ratio (PO/IV): 0.38
  Cmax Ratio (PO/IV): 1.89
Esophagus, 2 h IV infusion 15 mg/kg, Group 4
  AUCall: 73.1850 μg equiv · h/g
Esophagus, 2 h IV infusion 15 mg/kg, Group 4, LLOQ 0.036
  Tissue Concentration (168 h): 0.041 μg equiv/g
Esophagus, PO 15 mg/kg, Group 7, LLOQ 0.034
  Tissue Concentration (168 h): BQL
Esophagus, PO 15 mg/kg, Group 7
  AUCall: 27.9015 μg equiv · h/g
Eye (lens), 2 h IV infusion 15 mg/kg, Group 4
  AUCall: 0.1545 μg equiv · h/g
Eye (lens), 2 h IV infusion 15 mg/kg, Group 4, LLOQ 0.036
  Tissue Concentration (168 h): BQL
Eye (lens), PO 15 mg/kg, Group 7, LLOQ 0.034
  Tissue Concentration (168 h): BQL
Eye (uveal tract)
  AUCall Ratio (PO/IV): 0.32
  Cmax Ratio (PO/IV): 0.43
Eye (uveal tract), 2 h IV infusion 15 mg/kg, Group 4
  AUCall: 51.5575 μg equiv · h/g
Eye (uveal tract), 2 h IV infusion 15 mg/kg, Group 4, LLOQ 0.036
  Tissue Concentration (168 h): BQL
Eye (uveal tract), PO 15 mg/kg, Group 7, LLOQ 0.034
  Tissue Concentration (168 h): BQL
Eye (uveal tract), PO 15 mg/kg, Group 7
  AUCall: 16.2765 μg equiv · h/g
Harderian Gland
  AUCall Ratio (PO/IV): 0.25
  Cmax Ratio (PO/IV): 0.12
Harderian Gland, 2 h IV infusion 15 mg/kg, Group 4
  AUCall: 257.6905 μg equiv · h/g
Harderian Gland, 2 h IV infusion 15 mg/kg, Group 4, LLOQ 0.036
  Tissue Concentration (168 h): 0.403 μg equiv/g
Harderian Gland, PO 15 mg/kg, Group 7, LLOQ 0.034
  Tissue Concentration (168 h): 0.11 μg equiv/g
Harderian Gland, PO 15 mg/kg, Group 7
  AUCall: 63.7645 μg equiv · h/g
Heart
  AUCall Ratio (PO/IV): 0.54
  Cmax Ratio (PO/IV): 0.15
Heart, 2 h IV infusion 15 mg/kg, Group 4
  AUCall: 58.1205 μg equiv · h/g
Heart, 2 h IV infusion 15 mg/kg, Group 4, LLOQ 0.036
  Tissue Concentration (168 h): 0.062 μg equiv/g
Heart, PO 15 mg/kg, Group 7, LLOQ 0.034
  Tissue Concentration (168 h): 0.045 μg equiv/g
Heart, PO 15 mg/kg, Group 7
  AUCall: 31.1603 μg equiv · h/g
Kidney Cortex
  AUCall Ratio (PO/IV): 0.42
  Cmax Ratio (PO/IV): 0.18
Kidney Cortex, 2 h IV infusion 15 mg/kg, Group 4
  AUCall: 1919.6850 μg equiv · h/g
Kidney Cortex, 2 h IV infusion 15 mg/kg, Group 4, LLOQ 0.036
  Tissue Concentration (168 h): 0.33 μg equiv/g
Kidney Cortex, PO 15 mg/kg, Group 7, LLOQ 0.034
  Tissue Concentration (168 h): 0.342 μg equiv/g
Kidney Cortex, PO 15 mg/kg, Group 7
  AUCall: 804.4980 μg equiv · h/g
Kidney Medulla
  AUCall Ratio (PO/IV): 0.48
  Cmax Ratio (PO/IV): 0.34
Kidney Medulla, 2 h IV infusion 15 mg/kg, Group 4
  AUCall: 717.8445 μg equiv · h/g
Kidney Medulla, 2 h IV infusion 15 mg/kg, Group 4, LLOQ 0.036
  Tissue Concentration (168 h): 0.138 μg equiv/g
Kidney Medulla, PO 15 mg/kg, Group 7, LLOQ 0.034
  Tissue Concentration (168 h): 0.201 μg equiv/g
Kidney Medulla, PO 15 mg/kg, Group 7
  AUCall: 342.0130 μg equiv · h/g
Large Intestine
  AUCall Ratio (PO/IV): 0.45
  Cmax Ratio (PO/IV): 0.61
Large Intestine, 2 h IV infusion 15 mg/kg, Group 4
  AUCall: 310.7965 μg equiv · h/g
Large Intestine, 2 h IV infusion 15 mg/kg, Group 4, LLOQ 0.036
  Tissue Concentration (168 h): 0.103 μg equiv/g
Large Intestine, PO 15 mg/kg, Group 7, LLOQ 0.034
  Tissue Concentration (168 h): 0.06 μg equiv/g
Large Intestine, PO 15 mg/kg, Group 7
  AUCall: 140.3313 μg equiv · h/g
Liver
  AUCall Ratio (PO/IV): 0.66
